Laboratory results published in patent US20120027857A1, “CONTROLLED RELEASE PHARMACEUTICAL CO[…]-[…]-VENLAFAXINE” (LEK PHARMACEUTICALS D.D., priority 2008, published 2012).

Experiments:
[1] = pH of 1% water solution; type: physicochemical
[2] = Dissolution test, USP apparatus 1, 900 ml water with 0.9% NaCl, 150 rpm, 37°C, HPLC; type: physicochemical; conditions: compared to O-desmethyl-venlafaxine succinate from the tablet having the same composition
Description: Dissolution properties were evaluated by in vivo relevant dissolution test. USP apparatus 1 was used for testing. 900 ml of water with 0.9% NaCl is placed in the dissolution vessel, mixed with a paddle at 150 rpm and kept at 37±0.5° C. Samples were taken from the dissolution vessel at regular time intervals and the concentrations of O-desmethyl-venlafaxine were analyzed by HPLC.
Pharmaceutical compositions might be optionally placed for 60 minutes in 900 ml 0.01 M HCl before being placed in 900 ml water with 0.9% NaCl.

| Structure (SMILES) | pH (1% water solution) [1] | dissolution of salt from matrix tablet [2] |
| --- | --- | --- |
| CN(C)CC(c1ccc(O)cc1)C1(O)CCCCC1.O=C[C@H](O)[C@@H](O)[C@H](O)[C@H](O)C(=O)O (stereo not drawn) [O-desmethyl-venlafaxine glucuronate] | 6.14 |  |
| CN(C)CC(c1ccc(O)cc1)C1(O)CCCCC1.O=C(O)c1cc(=O)[nH]c(=O)[nH]1 (stereo not drawn) [O-desmethyl-venlafaxine orotate] | 3.3 | much faster |
